Data taken from US9896441B2 (Lycera Corporation, priority 2014, dated 2018).

Legend:
RORγ-LBD = target: T1, RORγ-LBD (Homo sapiens, UniProt P51449); assay: RORγ-Ligand Binding Domain (LBD) TR-FRET Assay; format: biochemical; settings: for TR-FRET Assay Max Response: maximum response;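 on TR-FRET Assay Max Response: 665/615 nm signal ratio set to 100 without ursolic acid or test compound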
T1 construct: made in house; host or cells: SF9 cells (baculovirus); used as diluted lysate
T1 sequence (P51449 269-508 limits assumed): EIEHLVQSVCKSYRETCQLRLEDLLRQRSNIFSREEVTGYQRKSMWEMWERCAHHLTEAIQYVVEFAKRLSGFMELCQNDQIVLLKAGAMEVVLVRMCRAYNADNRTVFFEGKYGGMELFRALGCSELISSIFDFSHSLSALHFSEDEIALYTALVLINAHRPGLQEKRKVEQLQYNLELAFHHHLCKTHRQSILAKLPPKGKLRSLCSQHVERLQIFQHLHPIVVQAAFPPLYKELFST
Procedure, shortened: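 Compounds, diluted in DMSO and then in assay buffer (1% DMSO final), were combined with His-tagged RORγ-LBD lysate at roughly 3 nM final and a 200 nM biotinylated SRC1 LXXLL peptide. Ursolic acid was included at 2 μM final. Coactivator recruitment was detected by TR-FRET.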

Gal4-RORγ-LBD = target: T2, Gal4-RORγ-LBD (Homo sapiens, UniProt P51449); assay: Gal4-RORγ Luciferase Reporter Assay in HEK-293T Cells; format: cell-based; settings: HEK-293 cells; for Gal4-RORγ Assay Max Response: maximum response
T2 construct: expressed in transfected cells
T2 sequence (P51449 269-508 limits assumed): T1 sequence (P51449 269-508 limits assumed)
Procedure, shortened: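 Max Response was taken as the upper plateau of a 4-parameter logistic fit of luciferase signal, normalized to 100 for wells without ursolic acid or compound. Transiently Gal4-RORγ-LBD/Gal4-luc transfected HEK-293 cells carrying […] ursolic acid were incubated with test compounds (0.2% DMSO) overnight at 37 °C and read with One-Glo.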

[1] = luciferase reporter, with ursolic acid
[2] = luciferase reporter, in presence of ursolic acid

Row | Compound | EC50 (RORγ-LBD; RORγ-LBD TR-FRET) [nM] | EC50 (Gal4-RORγ-LBD; [1]) [nM] | EC50 (RORγ-LBD; RORγ-LBD TR-FRET assay) [nM] | TR-FRET Assay Max Response (RORγ-LBD; RORγ-LBD TR-FRET assay) | EC50 (Gal4-RORγ-LBD; [2]) [nM] | Gal4-RORγ Assay Max Response (Gal4-RORγ-LBD; [2]) | EC50 (RORγ-LBD; with 2 μM ursolic acid (RORγ antagonist), highest test concentration 10 μM) [nM] | EC50 (Gal4-RORγ-LBD; ursolic acid present, luciferase readout) [nM]
1 | CCOc1ncc(Cl)cc1S(=O)(=O)N1C[C@H](CCC(=O)OC)Oc2ccc(/C=C(\C)c3c(F)cccc3Cl)cc21 [Example 67, Methyl (S,E)-3-(4-((5-chloro-2-ethoxypyridin-3-yl)sulfonyl)-6-(2-(2-chloro-6-fluorophenyl)prop-1-en-1-yl)-3,4-dihydro-2H-benzo[b][1,4]oxazin-2-yl)propanoate] | < 500 | 500 to 5000 |  |  |  |  |  | 
2 | CCn1cc(S(=O)(=O)N2C[C@H](CCNC(C)=O)Oc3ccc(/C=C(\C)c4c(F)cccc4Cl)cc32)c(Cl)n1 [Example 116E, (S,E)-N-(2-(4-((3-chloro-1-ethyl-1H-pyrazol-4-yl)sulfonyl)-6-(2-(2-chloro-6-fluorophenyl)-prop-1-en-1-yl)-3,4-dihydro-2H-benzo[b][1,4]oxazin-2-yl)ethyl)acetamide] |  |  | < 500 | *** (a value in the range of greater than 150 to 200) | < 500 | ** (a value in the range of greater than 90 to 150) |  | 
3 | COC(=O)C(C)(C)C[C@@H]1Cc2ccc(OCc3c(F)cccc3Cl)cc2N(S(=O)(=O)c2ccc(F)c(OC)c2)C1 [Example 26, (S)-Methyl 3-(7-((2-chloro-6-fluorobenzyl)oxy)-1-((4-fluoro-3-methoxyphenyl)sulfonyl)-1,2,3,4-tetrahydroquinolin-3-yl)-2,2-dimethylpropanoate] | < 500 | < 500 |  |  |  |  |  | 
4 | COC(=O)CCC1CC(S(=O)(=O)c2cccc(C(F)(F)F)c2)c2cc(/C=C(\C)c3c(F)cccc3Cl)ccc2O1 (stereo not shown) [Example 186H, methyl (E)-3-(6-(2-(2-chloro-6-fluorophenyl)prop-1-en-1-yl)-4-((3-(trifluoromethyl)phenyl)-sulfonyl)chroman-2-yl)propanoate] |  |  | < 500 | *** (a value in the range of greater than 150 to 200) | < 500 | ** (a value in the range of greater than 90 to 150) |  | 
5 | C/C(=C\c1ccc2c(c1)N(S(=O)(=O)c1cccc(C(F)(F)F)c1)C[C@H](CCCN1CCC(C(=O)O)CC1)O2)c1c(F)cccc1Cl [Example 123, (S,E)-1-(3-(6-(2-(2-Chloro-6-fluorophenyl)prop-1-en-1-yl)-4-((3-(trifluoromethyl)phenyl)sulfonyl)-3,4-dihydro-2H-benzo[b][1,4]oxazin-2-yl)propyl)piperidine-4-carboxylic acid] |  |  | < 500 | ** (a value in the range of greater than 90 to 150) | 500 to 5000 | ** (a value in the range of greater than 90 to 150) |  | 
6 | O=C(O)CC[C@H]1CN(S(=O)(=O)c2cccc(C(F)(F)F)c2)c2cc(/C=C/c3cc(F)ccc3C(F)(F)F)ccc2O1 [Example 89CP, (S,E)-3-(6-(5-fluoro-2-(trifluoromethyl)styryl)-4-((3-(trifluoromethyl)phenyl)sulfonyl)-3,4-dihydro-2H-benzo[b][1,4]-oxazin-2-yl)propanoic acid] | < 500 | < 500 |  |  |  |  |  | 
7 | O=S(=O)(c1cccc(C(F)(F)F)c1)N1C[C@H](CCO)Oc2ccc(COc3c(F)cccc3Cl)cc21 |  |  |  |  |  |  | < 500 | 500 to 5000
8 | CCOc1nn(CC)cc1S(=O)(=O)N1C[C@H](CCC(=O)OC)Oc2ccc(/C=C/c3cccc(OC)n3)cc21 [Example 89T, (S,E)-methyl 3-(4-((3-ethoxy-1-ethyl-1H-pyrazol-4-yl)-sulfonyl)-6-(2-(6-methoxypyridin-2-yl)vinyl)-3,4-dihydro-2H-benzo[b][1,4]-oxazin-2-yl)propanoate] | > 10000 | > 10000 |  |  |  |  |  | 
9 | C/C(=C\c1ccc2c(c1)N(S(=O)(=O)c1cccc(C(F)(F)F)c1)C[C@H](CCC(=O)N1CCC1)O2)c1c(F)cccc1Cl [Example 127H, (S,E)-1-(azetidin-1-yl)-3-(6-(2-(2-chloro-6-fluorophenyl)prop-1-en-1-yl)-4-((3-(trifluoromethyl)phenyl)sulfonyl)-3,4-dihydro-2H-benzo[b][1,4]oxazin-2-yl)propan-1-one] |  |  | < 500 | *** (a value in the range of greater than 150 to 200) | < 500 | ** (a value in the range of greater than 90 to 150) |  | 
10 | CCn1cc(S(=O)(=O)N2C[C@H](CCC(C)(C)O)Oc3ccc(/C=C(\C)c4c(F)cccc4Cl)cc32)c(OCCO)n1 [Example 121C, (S,E)-4-(6-(2-(2-chloro-6-fluorophenyl)prop-1-en-1-yl)-4-((1-ethyl-3-(2-hydroxyethoxy)-1H-pyrazol-4-yl)sulfonyl)-3,4-dihydro-2H-benzo[b][1,4]oxazin-2-yl)-2-methylbutan-2-ol] |  |  | < 500 | **** (a value greater than 200) | < 500 | ** (a value in the range of greater than 90 to 150) |  | 
11 | Cc1ccc(F)c(/C=C/c2ccc3c(c2)N(S(=O)(=O)c2cccc(C(F)(F)F)c2)C[C@H](CCC(=O)O)O3)c1 [Example 89CA, (S,E)-3-(6-(2-fluoro-5-methylstyryl)-4-((3-(trifluoromethyl)phenyl)sulfonyl)-3,4-dihydro-2H-benzo[b][1,4]oxazin-2-yl)propanoic acid] | < 500 | > 10000 |  |  |  |  |  | 
12 | CCOc1nn(CC)cc1S(=O)(=O)N1C[C@H](CCC(=O)OC)Oc2ccc(/C=C/c3ccc(Cl)cc3)cc21 [Example 89DA, methyl (S,E)-3-(6-(4-chlorostyryl)-4-((3-ethoxy-1-ethyl-1H-pyrazol-4-yl)sulfonyl)-3,4-dihydro-2H-benzo[b][1,4]oxazin-2-yl)propanoate] | > 10000 | > 10000 |  |  |  |  |  | 
13 | C/C(=C\c1ccc2c(c1)N(S(=O)(=O)c1cccc(C(F)(F)F)c1)C[C@H](CCO)O2)c1c(F)cccc1Cl [Example 106, (S,E)-2-(6-(2-(2-Chloro-6-fluorophenyl)prop-1-en-1-yl)-4-((3-(trifluoromethyl)phenyl)sulfonyl)-3,4-dihydro-2H-benzo[b][1,4]oxazin-2-yl)ethanol] |  |  | < 500 | *** (a value in the range of greater than 150 to 200) | < 500 | ** (a value in the range of greater than 90 to 150) |  | 
14 | COC(=O)CC[C@H]1CN(S(=O)(=O)c2cccc(OC(F)F)c2)c2cc(/C=C/c3ccccc3OC)ccc2O1 [Example 89AZ, (S,E)-methyl 3-(4-((3-(difluoromethoxy)phenyl)sulfonyl)-6-(2-methoxystyryl)-3,4-dihydro-2H-benzo[b][1,4]oxazin-2-yl)propanoate] | < 500 | < 500 |  |  |  |  |  | 
15 | CCOc1nn(CC)cc1S(=O)(=O)N1C[C@H](CCC(=O)O)Oc2ccc(/C=C/c3nccnc3Cl)cc21 [Example 89M, (S,E)-3-(6-(2-(3-chloropyrazin-2-yl)vinyl)-4-((3-ethoxy-1-ethyl-1H-pyrazol-4-yl)sulfonyl)-3,4-dihydro-2H-benzo[b][1,4]oxazin-2-yl)propanoic acid] | > 10000 | > 10000 |  |  |  |  |  | 
16 | CCOC(=O)C(C)(C)C[C@H]1C[C@H](S(=O)(=O)c2cccc(C(F)(F)F)c2)c2cc(/C=C(\C)c3c(F)cccc3Cl)ccc2O1 [Example 186M, ethyl 3-((2S,45)-6-((E)-2-(2-chloro-6-fluorophenyl)prop-1-en-1-yl)-4-((3-(trifluoromethyl)-phenyl)sulfonyl)chroman-2-yl)-2,2-dimethylpropanoate] |  |  | < 500 | *** (a value in the range of greater than 150 to 200) | < 500 | * (a value in the range of 30 to 90) |  | 
